Source: patent US10918638B2, “Histone deacetylase 6 inhibition for enhancing T-cell function during anti-tumor response and tumor-peptide vaccination” (H. LEE MOFFITT CANCER CENTER AND RESEARCH INSTITUTE, INC., priority 2014, dated 2021)

What was measured:
Fc-muMCL1 lymphoma cells [1] = test: Fc-muMCL1 lymphoma tumor growth in C57BL/6 mice; type: in vivo; details: C57BL/6 (WT) mice, 35 mg/kg daily for 16 days vs vehicle
Method: (§1) FIGS. 3A and 3B. […] (FIG. 3A) C57BL/6 or (FIG. 3B) SCID mice were subcutaneous injected with 3×10^6 Fc-muMCL1 lymphoma cells. After tumor appearance, six mice were treated daily with 35 mg/kg of Tubastatin A and four mice received vehicle control, for 16 days. […] To further evaluate whether these in vivo responses were dependent on T-cells, WT or lympho-deficient, lymphoma-bearing mice were treated with an HDAC6 inhibitor. HDAC6 inhibition led to reduced tumor burden in WT mice, which was absent in lympho-deficient mice, highlighting the importance of lymphocytes in the aforementioned in vivo results. Thus, the role of HDAC6 in regulating immune cells during anti-tumor response appears to be more important than the previously reported role as a regulator of Treg function.

Fc-muMCL1 lymphoma cells [2] = test: Fc-muMCL1 lymphoma tumor growth in SCID mice; type: in vivo; details: SCID (lympho-deficient) mice, 35 mg/kg daily for 16 days vs vehicle
Method: as §1

`CN1CCc2c(c3ccccc3n2Cc2ccc(C(=O)NO)cc2)C1` [Tubastatin A] was tested, and the “anti-tumor response / tumor burden” value (Fc-muMCL1 lymphoma cells [1]) was “Enhanced anti-tumor response” and the “anti-tumor response / tumor burden” value (Fc-muMCL1 lymphoma cells [2]) was “dependent on an intact immune system”.
